Results on one molecule are retold here after EP4721744A1, “PHARMACEUTICAL COMPOSITION COMPRISING CEPHALOSPORIN ANTIBACTERIAL COMPOUND” (Jiangsu Hengrui Pharmaceuticals Co., Ltd., priority 2023, dated 2024).

For series [1] the following is noted: bulk compound; needs to be stored at or below -60°C; cited from earlier work.
Series [2] is described as follows: Solubility test in different solvent systems. It is filed as physicochemical. On the procedure:
Different solvent systems were prepared to test the solubility of the compound as shown in formula (I). Table 1 Solubility test

Where [3] appears, read: Purified water + 1 M NaOH solution for pH adjustment, 4.9 ml, charging amount 500.4 mg.
The mark [4] stands for this setting: Purified water, 250 mL, charging amount 20.01 mg.

The structures appear in SMILES notation.

On to `CC(C)(O/N=C(\C(=O)N[C@@H]1C(=O)N2C(C(=O)[O-])=C(C[N+]3(CCCN(CCCNC(=O)c4ccc(O)c(O)c4Cl)C(=O)c4ccc(O)c(O)c4Cl)CCCC3)CS[C@H]12)c1csc(N)n1)C(=O)O` [compound as shown in formula (I)], for which the stability result in series [1] is given as “extremely poor stability”. The “Dissolution Status” value in series [2] (Hydrochloric acid (pH 1.0), 200 mL, charging amount 19.99 mg) is recorded as “Incomplete dissolution”; in series [2] (setting [3]) it was “Complete dissolution”; in series [2] (Purified water, 20 mL, charging amount 20.01 mg) it was “Incomplete dissolution”; in series [2] (setting [4]) it was “Complete dissolution”. Also, the figures for the “Solution pH after complete dissolution” value in series [2] (setting [3]) and in series [2] (setting [4]) were 5.08 and 3.6, respectively. Further, the solubility in series [2] (Purified water, 250 mL, solution pH 3.6) was below 1 mg/mL; in series [2] (purified water adjusted with 1 M NaOH solution, aqueous buffer, Purified water + 1 M NaOH solution for pH adjustment, 4.9 ml, solution pH 5.08), at least 100 mg/mL.

In general, solubility refers to the dissolved amount per volume that the medium holds.
